Test results published in US20260355196A1, “INHIBITORS AND DEGRADERS OF PIP4K PROTEIN” (Larkspur Biosciences, Inc., priority 2023, published 2026).

Molecular target: T1, PIP4K2C (Homo sapiens, UniProt Q8TBX8)
T1 sequence (Q8TBX8 1-421): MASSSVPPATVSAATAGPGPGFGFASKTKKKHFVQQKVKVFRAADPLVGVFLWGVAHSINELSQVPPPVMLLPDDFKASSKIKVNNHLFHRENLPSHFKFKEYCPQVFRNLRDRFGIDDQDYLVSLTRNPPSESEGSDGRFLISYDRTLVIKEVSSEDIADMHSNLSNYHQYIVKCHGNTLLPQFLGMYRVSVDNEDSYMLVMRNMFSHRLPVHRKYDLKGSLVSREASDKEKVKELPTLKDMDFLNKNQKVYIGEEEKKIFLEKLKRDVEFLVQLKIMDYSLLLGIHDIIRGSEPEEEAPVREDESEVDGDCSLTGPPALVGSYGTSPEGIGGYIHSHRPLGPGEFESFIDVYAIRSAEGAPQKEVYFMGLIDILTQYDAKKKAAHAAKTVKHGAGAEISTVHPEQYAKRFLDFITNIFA
Test: HiBiT PIP4K2C degradation assay in MOLT-4 cells (endogenous PIP4K2C C-terminally tagged with HiBiT)
Type: cell-based
Parameters: untagged in primary human PBMCs and monocyte-derived dendritic cells
Details: 6 hours of incubation time, rather than 24 hours; MOLT-4, top concentration 10 micromolar; read-out: HiBIT-degradation MOLT4 PIP4k2C DC50 (6 hours, marked *)
Method in brief: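 Cells are plated onto compound dilutions (10 points, 3-fold, top 10 micromolar) and incubated 24 or 6 hours at 37 C. Lytic HiBiT detection then quantifies tagged endogenous PIP4K2C in MOLT-4, and a Hill fit yields DC50.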

| DC50 | Molecule |
| --- | --- |
| < 500 nM | O=C1CCC(Nc2ccc(N3CCN(CC4(O)CCN(C(=O)[C@H]5CC[C@H](Nc6ncc(F)c(-c7cccc(C(=O)N8CC[C@H](O)C8)c7)n6)CC5)CC4)CC3)c(F)c2)C(=O)N1 (stereo partly drawn) [Compound 482, trans-3-((3-fluoro-4-(4-((1-(4-((5-fluoro-4-(3-((S)-3-hydroxypyrrolidine-1-carbonyl)phenyl)pyrimidin-2-yl)amino)cyclohexane-1-carbonyl)-4-hydroxypiperidin-4-yl)methyl)piperazin-1-yl)phenyl)amino)piperidine-2,6-dione] |
| < 500 nM | O=C1CC[C@H](Nc2ccc(C3CCN(CC4CCN(C(=O)[C@H]5CC[C@H](Nc6ncc(F)c(-c7cccc(N8CCCCC8=O)c7)n6)CC5)CC4)CC3)c(F)c2)C(=O)N1 (single isomer, unassigned) [Compound 449] |
| < 500 nM | O=C1CCC(Nc2ccc(N3CCN([C@H]4CC[C@H](NC(=O)[C@H]5CC[C@H](Nc6ncc(F)c(-c7cccc(N8CCOCC8)c7)n6)CC5)CC4)CC3)c(F)c2)C(=O)N1 (stereo partly drawn) [Compound 661, trans-(1r,4R)—N-((1r,4R)-4-(4-(4-((2,6-dioxopiperidin-3-yl)amino)-2-fluorophenyl)piperazin-1-yl)cyclohexyl)-4-((5-fluoro-4-(3-morpholinophenyl)pyrimidin-2-yl)amino)cyclohexane-1-carboxamide] |
| > 5000 nM | trans-(1r,4R)-4-(4-(4-((2,6-dioxopiperidin-3-yl)amino)-2-fluorophenyl)piperidin-1-yl)-N-((1r,4R)-4-((5-fluoro-4-(6-(2-oxo-1,3-oxazinan-3-yl)pyridin-2-yl)pyrimidin-2-yl)amino)cyclohexyl)cyclohexane-1-carboxamide [Compound 539] |
| < 500 nM | O=C1CCC(Nc2ccc(C3CCN(C4CCN(C(=O)O[C@H]5CC[C@H](Nc6ncc(F)c(-c7cccc(N8CCOCC8)c7)n6)CC5)CC4)CC3)c(F)c2)C(=O)N1 (stereo partly drawn) [Compound 676, trans-4-((5-fluoro-4-(3-morpholinophenyl)pyrimidin-2-yl)amino)cyclohexyl 4-(4-((2,6-dioxopiperidin-3-yl)amino)-2-fluorophenyl)-[1,4′-bipiperidine]-1′-carboxylate] |
| < 500 nM | O=C1CCC(Nc2ccc(N3CCC(N4CCC(NC(=O)[C@H]5CC[C@H](Nc6ncc(F)c(-c7cccc(N8CCCCC8=O)c7)n6)CC5)CC4)C(F)C3)c(F)c2)C(=O)N1 (stereo partly drawn) [Compound 701, trans-N-(1′-(4-((2,6-dioxopiperidin-3-yl)amino)-2-fluorophenyl)-3′-fluoro-[1,4′-bipiperidin]-4-yl)-4-((5-fluoro-4-(3-(2-oxopiperidin-1-yl)phenyl)pyrimidin-2-yl)amino)cyclohexane-1-carboxamide] |
| < 500 nM | O=C1CCC(Nc2ccc(C3CCN(CCC4CCN(C(=O)O[C@H]5CC[C@H](Nc6ncc(F)c(-c7cccc(-n8ccccc8=O)c7)n6)CC5)CC4)CC3)c(F)c2)C(=O)N1 (stereo partly drawn) [Compound 697, trans-4-((5-fluoro-4-(3-(2-oxopyridin-1 (2H)-yl)phenyl)pyrimidin-2-yl)amino)cyclohexyl 4-(2-(4-(4-((2,6-dioxopiperidin-3-yl)amino)-2-fluorophenyl)piperidin-1-yl)ethyl)piperidine-1-carboxylate] |
| < 500 nM | O=C1CCC(Nc2ccc(C3CCN([C@H]4CC[C@H](NC(=O)[C@H]5CC[C@H](Nc6ncc(F)c(-c7cccc(-n8ccccc8=O)n7)n6)CC5)CC4)CC3)c(F)c2)C(=O)N1 (stereo partly drawn) [Compound 520, trans-N-(trans-4-(4-(4-((2,6-dioxopiperidin-3-yl)amino)-2-fluorophenyl)piperidin-1-yl)cyclohexyl)-4-((5-fluoro-4-(2-oxo-2H-[1,2′-bipyridin]-6′-yl)pyrimidin-2-yl)amino)cyclohexane-1-carboxamide] |

Same assay, conditions: 24 hours incubation, MOLT-4, top concentration 10 micromolar; read-out: HiBIT-degradation MOLT4 PIP4k2C 24 hours DC50

| DC50 | Molecule |
| --- | --- |
| < 500 nM | Cn1c(=O)n(C2CCC(=O)NC2=O)c2ccc(C3CCN(CCC4CCN(C(=O)[C@H]5CCC[C@@H](Nc6ncc(Cl)c(-c7cccc(-c8ccccc8)c7)n6)C5)CC4)CC3)cc21 (stereo partly drawn) [Compound 281, 3-(5-(1-(2-(1-((1S,3R)-3-((4-([1,1′-biphenyl]-3-yl)-5-chloropyrimidin-2-yl)amino)cyclohexane-1-carbonyl)piperidin-4-yl)ethyl)piperidin-4-yl)-3-methyl-2-oxo-2,3-dihydro-1H-benzo[d]imidazol-1-yl)piperidine-2,6-dione] |
| < 500 nM | O=C1CCC(N2Cc3cc(OC4CCN(CC5CCN(CC(=O)N6CCC(Nc7ncc(Cl)c(-c8cccc(-c9ccccc9)c8)n7)CC6)CC5)CC4)ccc3C2=O)C(=O)N1 (stereo not drawn) [Compound 85, 3-(5-((1-((1-(2-(4-((4-([1,1′-biphenyl]-3-yl)-5-chloropyrimidin-2-yl)amino)piperidin-1-yl)-2-oxoethyl)piperidin-4-yl)methyl)piperidin-4-yl)oxy)-1-oxoisoindolin-2-yl)piperidine-2,6-dione] |
| < 500 nM | O=C1CCC(Nc2ccc(C3CCN(CCC4CCN(C(=O)[C@H]5CC[C@H](Nc6ncc(F)c(-c7cccc(-n8ccccc8=O)c7)n6)CC5)CC4)CC3)c(F)c2)C(=O)N1 (stereo partly drawn) [Compound 322, trans-3-((3-fluoro-4-(1-(2-(1-((1r,4r)-4-((5-fluoro-4-(3-(2-oxopyridin-1(2H)-yl)phenyl)pyrimidin-2-yl)amino)cyclohexane-1-carbonyl)piperidin-4-yl)ethyl)piperidin-4-yl)phenyl)amino)piperidine-2,6-dione] |
| < 500 nM | O=C1CCC(Nc2ccc(C3CCN(C4CCN(CCC(=O)N5CCC(Nc6ncc(Cl)c(-c7cccc(-c8ccccc8)c7)n6)CC5)CC4)CC3)cc2)C(=O)N1 (stereo not drawn) [Compound 48, 3-((4-(1′-(3-(4-((4-([1,1′-biphenyl]-3-yl)-5-chloropyrimidin-2-yl)amino)piperidin-1-yl)-3-oxopropyl)-[1,4′-bipiperidin]-4-yl)phenyl)amino)piperidine-2,6-dione] |
| < 500 nM | O=C1CCC(n2c(=O)oc3cc(C4CCN(CC5CCN(C(=O)CN6CCC(Nc7ncc(F)c(-c8cccc(-n9ccccc9=O)c8)n7)CC6=O)CC5)CC4)ccc32)C(=O)N1 (stereo not drawn) [Compound 367, 3-(6-(1-((1-(2-(4-((5-fluoro-4-(3-(2-oxopyridin-1(2H)-yl)phenyl)pyrimidin-2-yl)amino)-2-oxopiperidin-1-yl)acetyl)piperidin-4-yl)methyl)piperidin-4-yl)-2-oxobenzo[d]oxazol-3 (2H)-yl)piperidine-2,6-dione] |
| < 500 nM | O=C1CCC(N2Cc3cc(C4CCN(CCN5CCC(C(=O)N6CCC(Nc7ncc(Cl)c(-c8cccc(-c9ccccc9)c8)n7)CC6)CC5)CC4)ccc3C2=O)C(=O)N1 (stereo not drawn) [Compound 88, 3-(5-(1-(2-(4-(4-((4-([1,1′-biphenyl]-3-yl)-5-chloropyrimidin-2-yl)amino)piperidine-1-carbonyl)piperidin-1-yl)ethyl)piperidin-4-yl)-1-oxoisoindolin-2-yl)piperidine-2,6-dione] |
| < 500 nM | Cn1c(=O)n(C2CCC(=O)NC2=O)c2ccc(C3CCN(CC4CCN(CC(=O)N5CCC(Nc6ncc(F)c(-c7cccc(-c8ccc(F)cc8)c7)n6)CC5)CC4)CC3)cc21 (stereo not drawn) [Compound 288, 3-(5-(1-((1-(2-(4-((5-fluoro-4-(4′-fluoro-[1,1′-biphenyl]-3-yl)pyrimidin-2-yl)amino)piperidin-1-yl)-2-oxoethyl)piperidin-4-yl)methyl)piperidin-4-yl)-3-methyl-2-oxo-2,3-dihydro-1H-benzo[d]imidazol-1-yl)piperidine-2,6-dione] |
